# Laboratory results from article PMC1079883, “Effects of first and second generation antihistamines on muscarinic induced mucus gland cell ion transport” (BMC Pharmacology, 2005).
# pKi: −log10 of the molar value. Like-named read-outs stand apart in the source and are kept apart here.
# Key:
# [1] = target: T1, H1 receptor (Sus scrofa, UniProt K9IVW0); assay: histamine-induced short-circuit current (ΔIsc) in cultured airway mucus gland cells, Ussing chamber; assay type: cell-based, swine
# T1 construct: Tracheal submucosal gland cells were isolated from the tracheal epithelium; endogenous in cells; host or cells: primary swine tracheal submucosal (mucus) gland cells in culture
# T1 sequence (K9IVW0 1-472): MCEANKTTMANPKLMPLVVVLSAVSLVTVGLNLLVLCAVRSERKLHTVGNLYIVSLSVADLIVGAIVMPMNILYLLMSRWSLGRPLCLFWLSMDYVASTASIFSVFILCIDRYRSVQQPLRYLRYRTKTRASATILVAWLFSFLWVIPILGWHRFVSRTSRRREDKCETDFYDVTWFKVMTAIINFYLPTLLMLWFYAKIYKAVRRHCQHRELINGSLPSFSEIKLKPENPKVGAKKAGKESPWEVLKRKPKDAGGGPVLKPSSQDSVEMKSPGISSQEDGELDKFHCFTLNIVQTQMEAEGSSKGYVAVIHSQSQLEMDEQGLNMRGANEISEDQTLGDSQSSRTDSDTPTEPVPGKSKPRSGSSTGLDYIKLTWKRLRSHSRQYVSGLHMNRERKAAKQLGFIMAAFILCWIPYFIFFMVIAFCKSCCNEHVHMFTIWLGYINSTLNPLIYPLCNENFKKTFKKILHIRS
# [2] = target: T2, M3 subtype muscarinic receptor (Sus scrofa, UniProt P11483); assay: ACh-induced short-circuit current (ΔIsc) in cultured airway mucus gland cells, Ussing chamber, Schild dose-ratio method; assay type: cell-based, swine; details: for Muscarinic inhibition (pA2): Schild dose-ratio method, slope set to 1, inhibition of ACh-induced ΔIsc, pA2 = -log Ki, mean ± SEM; for effect on the cholinergic (ACh) response / antimuscarinic action: at highest drug concentration tested: cetirizine 100 μM, loratadine 30 μM (Table 1; abstract 10 μM), fexofenadine 10 μM
# T2 construct: Tracheal submucosal gland cells were isolated from the tracheal epithelium; endogenous in cells; host or cells: primary swine tracheal submucosal (mucus) gland cells in culture
# T2 sequence (P11483 whole entry): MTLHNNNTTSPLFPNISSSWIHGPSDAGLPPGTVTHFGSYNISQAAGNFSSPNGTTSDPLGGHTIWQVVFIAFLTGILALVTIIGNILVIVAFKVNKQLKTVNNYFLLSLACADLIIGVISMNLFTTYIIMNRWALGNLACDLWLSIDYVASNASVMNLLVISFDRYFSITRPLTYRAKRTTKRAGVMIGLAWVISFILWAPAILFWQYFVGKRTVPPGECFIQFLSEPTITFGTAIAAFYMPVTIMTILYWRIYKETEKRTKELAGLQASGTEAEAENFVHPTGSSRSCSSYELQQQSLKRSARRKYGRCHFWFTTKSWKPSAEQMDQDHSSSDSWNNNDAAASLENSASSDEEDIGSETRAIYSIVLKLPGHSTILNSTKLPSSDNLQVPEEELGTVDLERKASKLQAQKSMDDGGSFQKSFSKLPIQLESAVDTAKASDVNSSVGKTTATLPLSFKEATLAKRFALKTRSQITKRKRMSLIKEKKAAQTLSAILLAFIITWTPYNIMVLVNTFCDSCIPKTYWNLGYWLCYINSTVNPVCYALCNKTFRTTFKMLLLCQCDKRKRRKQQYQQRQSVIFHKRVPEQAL
# [3] = target: histamine H1 receptor; details: radioligand binding assays; ref 18 Anthes et al.; cited from earlier work
# [4] = target: muscarinic receptors in the cerebral cortex; details: read-out: Ki against muscarinic receptors, radioligand (QNB) binding, all muscarinic subtypes, ref 16 Kubo et al.; cited from earlier work
# [5] = read-out: H1 receptor inhibition (~1/2 max-μM)
smiles,measurement,setting,value
CC(C)(C(=O)O)c1ccc(C(O)CCCN2CCC(C(O)(c3ccccc3)c3ccccc3)CC2)cc1 (centres unmarked) [Fexofenadine],IC50,[1]; H1 receptor inhibition (~1/2 max-μM),0.25 µM
COc1ccccc1CNCCCCCCNCCCCCCCCNCCCCCCNCc1ccccc1OC [Methoctramine],Kb,[2],2.51 µM
same,Muscarinic inhibition (pA2),[2],5.6
NCCc1c[nH]cn1 [histamine],maximum increase in current (ΔIsc),[1],19 ± 1 μA/cm^2
"CC(=O)OCC[N+](C)(C)C [ACh, acetylcholine]",maximum increase in current (ΔIsc),[2],15.5 ± 1 μA/cm^2
OCCOCCN1CCN(C(c2ccccc2)c2ccc(Cl)cc2)CC1 (centres unmarked) [Hydroxyzine],Kb,[3],0.01 µM
same,pKi,[4],5.42
same,IC50,[1]; [5],0.14 µM
same,Kb,[2],15.8 µM
same,pKi,"[2]; M3 muscarinic receptor induced ΔIsc, from Schild analysis, read-out: estimated Ki for inhibition of muscarinic receptors",4.82
same,Muscarinic inhibition (pA2),[2],4.8
O=C(O)COCCN1CCN(C(c2ccccc2)c2ccc(Cl)cc2)CC1 (centres unmarked) [Cetirizine],IC50,[1]; [5],0.12 µM
same,effect on the cholinergic (ACh) response / antimuscarinic action,[2],No effect (at 100 μM)
same,effect on the cholinergic (ACh) response / antimuscarinic action,[2]; listed as cetirizine,no effects
